From patent publication US20100292214A1, “Compounds with Antiparasitic Activity, Applications thereof to the Treatment of Infectious Diseases Caused by Apicomplexans” (commissariat a l'Energie Atomique, priority 2007, published 2010)
Counter-ions that a name gives are not always drawn. Like-named read-outs stand apart in the source and are kept apart here.

Columns and labels:
[1] = tested on: asynchronous 3D7 chloroquine-sensitive P. falciparum infected red blood cells; assay: Labeled hypoxanthine incorporation assay (in vitro anti-malarial activity); format: cell-based; conditions: Plasmodium falciparum, 3D7, Erythrocyte, read-out: IC50 assessed on Plasmodium Falciparum
[2] = tested on: Toxoplasma gondii RH-β1 strain; assay: microbe, parasite or virus in culture; format: cell-based; conditions: Toxoplasma gondii, read-out: IC50 assessed on Toxoplama Gondii
[3] = 3D7 chloroquine-sensitive strain, infected RBC, 48 h contact, [3H]-hypoxanthine incorporation, two independent experiments in duplicates

Structure (SMILES): C[C@@H](COC(=O)N1CCC(Nc2cccc(F)c2)CC1)N(Cc1ccccc1)Cc1ccccc1 [Compound 84, (S)-2-(dibenzylamino)propyl 4-(3-fluorophenylamino)piperidine-1-carboxylate]
- IC50 [1]: 6.74 µM
- IC50 [2]: 5.5 µM

Structure (SMILES): C[C@@H](COC(=O)N1CCC(Nc2ccc(I)cc2)CC1)N(Cc1ccccc1)Cc1ccccc1 [Compound 85, (S)-2-(dibenzylamino)propyl 4-(4-iodophenylamino)piperidine-1-carboxylate]
- IC50 [1]: 8.09 µM
- IC50 [2]: 7.65 µM

Structure (SMILES): C[C@@H](COC(=O)N1CCC(Nc2ccc(Cl)c(Cl)c2)CC1)N(Cc1ccccc1)Cc1ccccc1 [Compound 86, (S)-2-(dibenzylamino)propyl 4-(3,4-dichlorophenylamino)piperidine-1-carboxylate]
- IC50 [1]: 7.25 µM
- IC50 [2]: 3.75 µM

Structure (SMILES): C[C@@H](COC(=O)N1CCC(Nc2ccccc2N)CC1)N(Cc1ccccc1)Cc1ccccc1 [Compound 87, (S)-2-(dibenzylamino)propyl 4-(2-aminophenylamino)piperidine-1-carboxylate]
- IC50 [1, 3]: 10.3 µM
- IC50 [2]: 12.9 µM

Structure (SMILES): C[C@@H](COC(=O)N1CCC(N(c2ccccc2)S(=O)(=O)c2ccccc2)CC1)N(Cc1ccccc1)Cc1ccccc1 [Compound 90, (S)-2-(dibenzylamino)propyl 4-(N-phenylphenylsulfonamido)piperidine-1-carboxylate]
- IC50 [1, 3]: 0.525 µM
- IC50 [2]: 1.75 µM

Structure (SMILES): C[C@@H](CNC(=S)N1CCC(n2c(=O)[nH]c3ccccc32)CC1)N(Cc1ccccc1)Cc1ccccc1 [Compound 91, N-((S)-2-(dibenzylamino)propyl)-4-(1,2-dihydro-2-oxobenzo[d]imidazol-3-yl)piperidine-1-carbothioamide]
- IC50 [1, 3]: 2.71 µM
- IC50 [2]: 7.5 µM

Structure (SMILES): C[C@@H](CNC(=O)N1CCC(n2c(=O)[nH]c3ccccc32)CC1)N(Cc1ccccc1)Cc1ccccc1 [Compound 92, N—((S)-2-(dibenzylamino)propyl)-4-(1,2-dihydro-2-oxobenzo[d]imidazol-3-yl)piperidine-1-carboxamide]
- IC50 [1, 3]: 3.47 µM
- IC50 [2]: 15 µM

Structure (SMILES): C[C@@H](COC(=O)N1CCC(Nc2nc3ccccc3[nH]2)CC1)N(Cc1ccccc1)Cc1ccccc1 [Compound 93, (S)-2-(Dibenzylamino)propyl 4-(1H-benzo[d]imidazol-2-ylamino)piperidine-1-carboxylate]
- IC50 [1, 3]: 0.18 µM
- IC50 [2]: 0.98 µM

Structure (SMILES): C[C@@H](COC(=O)N1CCC(Nc2nc3ccccc3n2C(=O)OC[C@H](C)N(Cc2ccccc2)Cc2ccccc2)CC1)N(Cc1ccccc1)Cc1ccccc1 [Compound 94, (S)-2-(dibenzylamino)propyl 2-(1-(((S)-2-(dibenzylamino)propoxy)carbonyl)piperidin-4-ylamino)-1H-benzo[d]imidazole-1-carboxylate]
- IC50 [1, 3]: 2.62 µM
- IC50 [2]: 9 µM

Structure (SMILES): C[C@@H](CNC(=N)N1CCC(n2c(=O)[nH]c3ccccc32)CC1)N(Cc1ccccc1)Cc1ccccc1 [Compound 95, N—((S)-2-(dibenzylamino)propyl)-4-(1,2-dihydro-2-oxobenzo[d]imidazol-3-yl)piperidine-1-carboxamidine]
- IC50 [1, 3]: 0.511 µM
- IC50 [2]: 11 µM

Structure (SMILES): O=C(CCCN(Cc1ccccc1)Cc1ccccc1)N1CCC(n2c(=O)[nH]c3ccccc32)CC1 [Compound 96, 1-[1-(4-Dibenzylamino-butyryl)-piperidin-4-yl]-1,3-dihydrobenzoimidazol-2-one]
- IC50 [1, 3]: 11.3 µM
- IC50 [2]: 6.3 µM

Structure (SMILES): C[C@@H](COC(=O)N1CCC(n2c(=S)[nH]c3ccccc32)CC1)N(Cc1ccccc1)Cc1ccccc1 [Compound 97, (S)-2-(dibenzylamino)propyl 4-(1,2-dihydro-2-thioxobenzo[d]imidazol-3-yl)piperidine-1-carboxylate]
- IC50 [1, 3]: 1.06 µM
- IC50 [2]: 3.5 µM

Structure (SMILES): O=C(OCCN(Cc1ccccc1)Cc1ccc([N+](=O)[O-])cc1)N1CCC(n2c(=O)[nH]c3ccccc32)CC1 [Compound 98, 2-(N-(4-nitrobenzyl)-N-benzylamino)ethyl 4-(1,2-dihydro-2-oxobenzo[d]imidazol-3-yl)piperidine-1-carboxylate]
- IC50 [1, 3]: 3.04 µM
- IC50 [2]: 3.33 µM

Structure (SMILES): O=C(OCCN(Cc1ccccc1)Cc1ccccc1OCc1ccccc1)N1CCC(n2c(=O)[nH]c3ccccc32)CC1 [Compound 99, 2-(benzyl(2-(benzyloxy)benzyl)amino)ethyl 4-(2-oxo-2,3-dihydro-1H-benzo[d]imidazol-1-yl)piperidine-1-carboxylate]
- IC50 [1, 3]: 0.842 µM
- IC50 [2]: 3.5 µM

Structure (SMILES): CC(C)C[C@@H](COC(=O)N1CCC(n2c(=O)[nH]c3ccccc32)CC1)N(Cc1ccccc1)C(=O)OC(C)(C)C [Compound 105, (S)-2-(benzyl(tert-butoxycarbonyl)amino)-4-methylpentyl 4-(2-oxo-2,3-dihydro-1H-benzo[d]imidazol-1-yl)piperidine-1-carboxylate]
- IC50 [1, 3]: 1.42 µM
- IC50 [2]: 2.2 µM

Structure (SMILES): CC(C)C[C@@H](COC(=O)N1CCC(n2c(=O)[nH]c3ccccc32)CC1)N(Cc1ccccc1)Cc1ccccc1 [Compound 108, (S)-2-(dibenzylamino)-4-methylpentyl 4-(1,2-dihydro-2-oxobenzo[d]imidazol-3-yl)piperidine-1-carboxylate]
- IC50 [1, 3]: 2.61 µM
- IC50 [2]: 3.75 µM

Structure (SMILES): CC(CCOC(=O)N1CCC(n2c(=O)[nH]c3ccccc32)CC1)N(Cc1ccccc1)Cc1ccccc1 (stereo not shown) [Compound 110, 3-(dibenzylamino)butyl 4-(1,2-dihydro-2-oxobenzo[d]imidazol-3-yl)piperidine-1-carboxylate]
- IC50 [1, 3]: 1.48 µM
- IC50 [2]: 3.6 µM

Structure (SMILES): O=C(OC[C@H](c1ccccc1)N(Cc1ccccc1)Cc1ccccc1)N1CCC(n2c(=O)[nH]c3ccccc32)CC1 [Compound 112, (S)-2-(dibenzylamino)-2-phenylethyl 4-(1,2-dihydro-2-oxobenzo[d]imidazol-3-yl)piperidine-1-carboxylate]
- IC50 [1, 3]: 0.5 µM
- IC50 [2]: 3.75 µM

Structure (SMILES): O=C(OCCCN(Cc1ccccc1)Cc1ccc([N+](=O)[O-])cc1)N1CCC(n2c(=O)[nH]c3ccccc32)CC1 [Compound 114, 3-(benzyl(4-nitrobenzyl)amino)propyl 4-(2-oxo-2,3-dihydro-1H-benzo[d]imidazol-1-yl)piperidine-1-carboxylate hydrochloride]
- IC50 [1, 3]: 3.17 µM
- IC50 [2]: 3.3 µM

Structure (SMILES): O=C(OCCN(Cc1ccccc1)Cc1ccc(Br)cc1)N1CCC(n2c(=O)[nH]c3ccccc32)CC1 [Compound 115, 2-(benzyl(4-bromobenzyl)amino)ethyl 4-(2-oxo-2,3-dihydro-1H-benzo[d]imidazol-1-yl)piperidine-1-carboxylate hydrochloride]
- IC50 [1, 3]: 4.41 µM
- IC50 [2]: 3.2 µM

Structure (SMILES): O=C(OC[C@@H](Cc1ccccc1)N(Cc1ccccc1)Cc1ccccc1)N1CCC(n2c(=O)[nH]c3ccccc32)CC1 [Compound 118, (R)-2-(dibenzylamino)-3-phenylpropyl 4-(1,2-dihydro-2-oxobenzo[d]imidazol-3-yl)piperidine-1-carboxylate]
- IC50 [1, 3]: 1.49 µM
- IC50 [2]: 2.9 µM

Structure (SMILES): O=C(OCCN(Cc1ccccc1)Cc1ccc(F)cc1)N1CCC(n2c(=O)[nH]c3ccccc32)CC1 [Compound 119, 2-(benzyl(4-fluorobenzyl)amino)ethyl 4-(2-oxo-2,3-dihydro-1H-benzo[d]imidazol-1-yl)piperidine-1-carboxylate hydrochloride]
- IC50 [1, 3]: 3.57 µM
- IC50 [2]: 1.4 µM

Structure (SMILES): O=C(OCCN(CCCc1ccccc1)Cc1ccccc1)N1CCC(n2c(=O)[nH]c3ccccc32)CC1 [Compound 120, 2-(benzyl(3-phenylpropyl)amino)ethyl 4-(2-oxo-2,3-dihydro-1H-benzo[d]imidazol-1-yl)piperidine-1-carboxylate hydrochloride]
- IC50 [1, 3]: 3.61 µM
- IC50 [2]: 1.7 µM

Structure (SMILES): COc1ccc(CN(CCOC(=O)N2CCC(n3c(=O)[nH]c4ccccc43)CC2)Cc2ccccc2)cc1 [Compound 121, 2-(benzyl(4-methoxybenzyl)amino)ethyl 4-(2-oxo-2,3-dihydro-1H-benzo[d]imidazol-1-yl)piperidine-1-carboxylate hydrochloride]
- IC50 [1, 3]: 3.49 µM
- IC50 [2]: 5 µM

Structure (SMILES): COc1cccc(CN(CCOC(=O)N2CCC(n3c(=O)[nH]c4ccccc43)CC2)Cc2ccccc2)c1 [Compound 122, 2-(benzyl(3-methoxybenzyl)amino)ethyl 4-(2-oxo-2,3-dihydro-1H-benzo[d]imidazol-1-yl)piperidine-1-carboxylate hydrochloride]
- IC50 [1, 3]: 3.72 µM
- IC50 [2]: 1.75 µM

Structure (SMILES): O=C(OCCN(Cc1ccccc1)Cc1cccc(Oc2ccccc2)c1)N1CCC(n2c(=O)[nH]c3ccccc32)CC1 [Compound 123, 2-(benzyl(3-phenoxybenzyl)amino)ethyl 4-(2-oxo-2,3-dihydro-1H-benzo[d]imidazol-1-yl)piperidine-1-carboxylate hydrochloride]
- IC50 [1, 3]: 1.42 µM
- IC50 [2]: 3.7 µM

Structure (SMILES): C[C@@H](COC(=O)N1CCC(n2c(=O)[nH]c3ccccc32)CC1)N(CCCc1ccccc1)Cc1ccccc1 [Compound 125, (S)-2-(benzyl(3-phenylpropyl)amino)propyl 4-(2-oxo-2,3-dihydro-1H-benzo[d]imidazol-1-yl)piperidine-1-carboxylate hydrochloride]
- IC50 [1, 3]: 4.2 µM
- IC50 [2]: 4 µM

Structure (SMILES): COc1cccc(CN(Cc2ccccc2)[C@@H](C)COC(=O)N2CCC(n3c(=O)[nH]c4ccccc43)CC2)c1 [Compound 126, (S)-2-(benzyl(3-methoxybenzyl)amino)propyl 4-(2-oxo-2,3-dihydro-1H-benzo[d]imidazol-1-yl)piperidine-1-carboxylate hydrochloride]
- IC50 [1, 3]: 3.98 µM
- IC50 [2]: 3.75 µM

Structure (SMILES): C[C@@H](COC(=O)N1CCC(n2c(=O)[nH]c3ccccc32)CC1)N(Cc1ccccc1)Cc1cccc(Cl)c1 [Compound 128, (S)-2-(benzyl(3-chlorobenzyl)amino)propyl 4-(2-oxo-2,3-dihydro-1H-benzo[d]imidazol-1-yl)piperidine-1-carboxylate hydrochloride]
- IC50 [1, 3]: 2.06 µM
- IC50 [2]: 5 µM
